Test results published in patent US20160002204A1 (Board of Regents, The University of Texas System, priority 2014, published 2016).

Legend:
[1] = biological target: T1, GLS1 (purified recombinant human GAC) (Homo sapiens, UniProt O94925); test: GLS1 enzymatic activity assay (dual-coupled, Amplex UltraRed/resorufin); format: biochemical
T1 sequence (O94925 55-598 isoform O94925-3 limits assumed): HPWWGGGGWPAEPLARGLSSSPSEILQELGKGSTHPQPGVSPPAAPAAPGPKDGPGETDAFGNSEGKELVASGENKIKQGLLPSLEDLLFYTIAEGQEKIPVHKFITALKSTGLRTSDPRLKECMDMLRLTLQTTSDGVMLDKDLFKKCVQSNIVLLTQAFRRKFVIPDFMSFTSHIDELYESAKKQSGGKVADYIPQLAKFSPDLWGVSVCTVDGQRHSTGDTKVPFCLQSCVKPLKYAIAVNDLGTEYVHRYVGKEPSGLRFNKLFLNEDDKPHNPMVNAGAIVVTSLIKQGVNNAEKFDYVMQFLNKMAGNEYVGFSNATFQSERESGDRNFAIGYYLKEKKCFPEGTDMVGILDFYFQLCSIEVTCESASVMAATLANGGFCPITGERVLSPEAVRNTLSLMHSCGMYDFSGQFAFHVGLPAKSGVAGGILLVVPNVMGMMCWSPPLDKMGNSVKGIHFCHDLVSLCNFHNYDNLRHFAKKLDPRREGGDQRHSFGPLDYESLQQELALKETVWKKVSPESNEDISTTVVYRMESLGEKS
Procedure, shortened: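 GAC activity measured by coupling glutamate to glutamate oxidase and HRP, generating resorufin from Amplex UltraRed. Enzyme (2 nM) preincubated with 50 mM potassium phosphate 10 min at room temperature, then inhibitor 10 min; 1 mM glutamine substrate, 1% DMSO. Fluorescence 530/590 nm, kinetic or 20-min endpoint; IC50 from four-parameter logistic fit.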

[2] = tested on: A549 cells; test: A549 proliferation (viability) assay, Cell Titer Fluor, 72 hours; format: cell-based; conditions: Homo sapiens
Procedure, shortened: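 1000 A549 cells/well, RPMI 1640/10% dialyzed FBS, 24 h attach; compound 72 h, 0.5% DMSO, 37 °C/5% CO2; Cell Titer Fluor fluorescence; EC50 via 4-parameter logistic.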

SMILES	IC50 [1]	EC50 [2]
O=C(Cc1ccccn1)Nc1ccn(CCC(F)Cn2cc(C(=O)NCc3cccc(OC(F)(F)F)c3)nn2)c(=O)c1 (stereo not drawn) [Example 250, 1-(2-fluoro-4-{2-oxo-4-[2-(pyridin-2-yl)acetamido]-1,2-dihydropyridin-1-yl}butyl)-N-{[3-(trifluoromethoxy)phenyl]methyl}-1H-1,2,3-triazole-4-carboxamide]	< 100 nM	100 to 500 nM
COc1cccc(CC(=O)Nc2ccn(CCC(F)Cn3cc(C(=O)NCc4cccc(OC(F)(F)F)c4)nn3)c(=O)c2)n1 (stereo not drawn) [Example 251, 1-(2-fluoro-4-{4-[2-(6-methoxypyridin-2-yl)acetamido]-2-oxo-1,2-dihydropyridin-1-yl}butyl)-N-{[3-(trifluoromethoxy)phenyl]methyl}-1H-1,2,3-triazole-4-carboxamide]	< 100 nM	100 to 500 nM
O=C(Cc1nccs1)Nc1ccn(CCC(F)Cn2cc(C(=O)NCc3cccc(OC(F)(F)F)c3)nn2)c(=O)c1 (stereo not drawn) [Example 252, 1-(2-fluoro-4-{2-oxo-4-[2-(1,3-thiazol-2-yl)acetamido]-1,2-dihydropyridin-1-yl}butyl)-N-{[3-(trifluoromethoxy)phenyl]methyl}-1H-1,2,3-triazole-4-carboxamide]	< 100 nM	100 to 500 nM
O=C(Cc1ccc2ccccc2n1)Nc1ccn(CCC(F)Cn2cc(C(=O)NCc3cccc(OC(F)(F)F)c3)nn2)c(=O)c1 (stereo not drawn) [Example 253, 1-(2-fluoro-4-{2-oxo-4-[2-(quinolin-2-yl)acetamido]-1,2-dihydropyridin-1-yl}butyl)-N-{[3-(trifluoromethoxy)phenyl]methyl}-1H-1,2,3-triazole-4-carboxamide]	< 100 nM	500 to 5000 nM
CCOC(=O)N1CCN(CC(=O)Nc2ccn(CCC(F)Cn3cc(C(=O)NCc4cccc(OC(F)(F)F)c4)nn3)c(=O)c2)CC1 (stereo not drawn) [Example 255, ethyl 4-{[(1-{3-fluoro-4-[4-({[3-(trifluoromethoxy)phenyl]methyl}carbamoyl)-1H-1,2,3-triazol-1-yl]butyl}-2-oxo-1,2-dihydropyridin-4-yl)carbamoyl]methyl}piperazine-1-carboxylate]	< 100 nM	< 100 nM
N#CC1CCN(CC(=O)Nc2ccn(CCC(F)Cn3cc(C(=O)NCc4cccc(OC(F)(F)F)c4)nn3)c(=O)c2)CC1 (stereo not drawn) [Example 256, 1-(4-{4-[2-(4-cyanopiperidin-1-yl)acetamido]-2-oxo-1,2-dihydropyridin-1-yl}-2-fluorobutyl)-N-{[3-(trifluoromethoxy)phenyl]methyl}-1H-1,2,3-triazole-4-carboxamide]	< 100 nM	500 to 5000 nM
O=C(CN1CCCC(CO)C1)Nc1ccn(CCC(F)Cn2cc(C(=O)NCc3cccc(OC(F)(F)F)c3)nn2)c(=O)c1 (stereo not drawn) [Example 257, 1-[2-fluoro-4-(4-{2-[3-(hydroxymethyl)piperidin-1-yl]acetamido}-2-oxo-1,2-dihydropyridin-1-yl)butyl]-N-{[3-(trifluoromethoxy)phenyl]methyl}-1H-1,2,3-triazole-4-carboxamide]	< 100 nM	500 to 5000 nM
O=C(Cc1ccccc1)Nc1cnn(CCC(F)Cn2cc(C(=O)NCc3cccc(OC(F)(F)F)c3)nn2)c(=O)c1 (stereo not drawn) [Example 263, 1-{2-fluoro-4-[6-oxo-4-(2-phenylacetamido)-1,6-dihydropyridazin-1-yl]butyl}-N-{[3-(trifluoromethoxy)phenyl]methyl}-1H-1,2,3-triazole-4-carboxamide]	< 100 nM	100 to 500 nM
O=C(CN1CCCCC1)Nc1ccn(CCC(F)Cn2cc(C(=O)NCc3cccc(OC(F)(F)F)c3)nn2)c(=O)c1 (stereo not drawn) [Example 269, 1-(2-fluoro-4-{2-oxo-4-[2-(piperidin-1-yl)acetamido]-1,2-dihydropyridin-1-yl}butyl)-N-{[3-(trifluoromethoxy)phenyl]methyl}-1H-1,2,3-triazole-4-carboxamide]	< 100 nM	< 100 nM
O=C(CN1CCCC1)Nc1ccn(CCC(F)Cn2cc(C(=O)NCc3cccc(OC(F)(F)F)c3)nn2)c(=O)c1 (stereo not drawn) [Example 270, 1-(2-fluoro-4-{2-oxo-4-[2-(pyrrolidin-1-yl)acetamido]-1,2-dihydropyridin-1-yl}butyl)-N-{[3-(trifluoromethoxy)phenyl]methyl}-1H-1,2,3-triazole-4-carboxamide]	100 to 500 nM	500 to 5000 nM
CC(C)(C)OC(=O)N1CCN(CC(=O)Nc2ccn(CCC(F)Cn3cc(C(=O)NCc4cccc(OC(F)(F)F)c4)nn3)c(=O)c2)CC1 (stereo not drawn) [Example 271, tert-butyl 4-{[(1-{3-fluoro-4-[4-({[3-(trifluoromethoxy)phenyl]methyl}carbamoyl)-1H-1,2,3-triazol-1-yl]butyl}-2-oxo-1,2-dihydropyridin-4-yl)carbamoyl]methyl}piperazine-1-carboxylate]	< 100 nM	< 100 nM

Further lines, results first:

IC50 [1]	EC50 [2]	SMILES
< 100 nM	< 100 nM	O=C(CC1CCCCC1)Nc1ccn(CCC(F)Cn2cc(C(=O)NCc3cc(C(F)(F)F)ccn3)nn2)c(=O)c1F (stereo not drawn) [Example 258, 1-{4-[4-(2-cyclohexylacetamido)-3-fluoro-2-oxo-1,2-dihydropyridin-1-yl]-2-fluorobutyl}-N-{[4-(trifluoromethyl)pyridin-2-yl]methyl}-1H-1,2,3-triazole-4-carboxamide]
< 100 nM	< 100 nM	O=C(CC1CCCCC1)Nc1ccn(CCC(F)Cn2cc(C(=O)NCc3cncc(C(F)(F)F)c3)nn2)c(=O)c1F (stereo not drawn) [Example 259, 1-{4-[4-(2-cyclohexylacetamido)-3-fluoro-2-oxo-1,2-dihydropyridin-1-yl]-2-fluorobutyl}-N-{[5-(trifluoromethyl)pyridin-3-yl]methyl}-1H-1,2,3-triazole-4-carboxamide]
< 100 nM	< 100 nM	O=C(CC1CCCCC1)Nc1ccn(CCC(F)Cn2cc(C(=O)NCc3ccc(C(F)(F)F)nc3)nn2)c(=O)c1F (stereo not drawn) [Example 260, 1-{4-[4-(2-cyclohexylacetamido)-3-fluoro-2-oxo-1,2-dihydropyridin-1-yl]-2-fluorobutyl}-N-{[6-(trifluoromethyl)pyridin-3-yl]methyl}-1H-1,2,3-triazole-4-carboxamide]
< 100 nM	< 100 nM	O=C(CC1CCCCC1)Nc1ccn(CCC(F)Cn2cc(C(=O)NCc3ccc(C(F)(F)F)cn3)nn2)c(=O)c1F (stereo not drawn) [Example 261, 1-{4-[4-(2-cyclohexylacetamido)-3-fluoro-2-oxo-1,2-dihydropyridin-1-yl]-2-fluorobutyl}-N-{[5-(trifluoromethyl)pyridin-2-yl]methyl}-1H-1,2,3-triazole-4-carboxamide]
< 100 nM	< 100 nM	O=C(CC1CCCCC1)Nc1ccn(CCC(F)Cn2cc(C(=O)NCc3cccc(C(F)(F)F)n3)nn2)c(=O)c1F (stereo not drawn) [Example 262, 1-{4-[4-(2-cyclohexylacetamido)-3-fluoro-2-oxo-1,2-dihydropyridin-1-yl]-2-fluorobutyl}-N-{[6-(trifluoromethyl)pyridin-2-yl]methyl}-1H-1,2,3-triazole-4-carboxamide]
< 100 nM	< 100 nM	O=C(CC1CCCCC1)Nc1ccn(CCC(F)Cn2cc(C(=O)NCc3cccc(C(F)(F)F)c3)nn2)c(=O)c1F (stereo not drawn) [Example 264, 1-{4-[4-(2-cyclohexylacetamido)-3-fluoro-2-oxo-1,2-dihydropyridin-1-yl]-2-fluorobutyl}-N-{[3-(trifluoromethyl)phenyl]methyl}-1H-1,2,3-triazole-4-carboxamide]
< 100 nM	< 100 nM	O=C(CC1CCCCC1)Nc1ccn(CCC(F)Cn2cc(C(=O)NCc3cc(Cl)ccc3F)nn2)c(=O)c1F (stereo not drawn) [Example 265, N-[(5-chloro-2-fluorophenyl)methyl]-1-{4-[4-(2-cyclohexylacetamido)-3-fluoro-2-oxo-1,2-dihydropyridin-1-yl]-2-fluorobutyl}-1H-1,2,3-triazole-4-carboxamide]
< 100 nM	< 100 nM	Cc1ccc(CNC(=O)c2cn(CC(F)CCn3ccc(NC(=O)CC4CCCCC4)c(F)c3=O)nn2)cn1 (stereo not drawn) [Example 266, 1-{4-[4-(2-cyclohexylacetamido)-3-fluoro-2-oxo-1,2-dihydropyridin-1-yl]-2-fluorobutyl}-N-[(6-methylpyridin-3-yl)methyl]-1H-1,2,3-triazole-4-carboxamide]
< 100 nM	< 100 nM	O=C(CC1CCCCC1)Nc1ccn(CCC(F)Cn2cc(C(=O)NCc3ccccn3)nn2)c(=O)c1F (stereo not drawn) [Example 267, 1-{4-[4-(2-cyclohexylacetamido)-3-fluoro-2-oxo-1,2-dihydropyridin-1-yl]-2-fluorobutyl}-N-(pyridin-2-ylmethyl)-1H-1,2,3-triazole-4-carboxamide]
< 100 nM	100 to 500 nM	CC(C)(O)c1ccc(CNC(=O)c2cn(CC(F)CCn3ccc(NC(=O)CC4CCCCC4)c(F)c3=O)nn2)cn1 (stereo not drawn) [Example 268, 1-{4-[4-(2-cyclohexylacetamido)-3-fluoro-2-oxo-1,2-dihydropyridin-1-yl]-2-fluorobutyl}-N-{[6-(2-hydroxypropan-2-yl)pyridin-3-yl]methyl}-1H-1,2,3-triazole-4-carboxamide]
